Source: paper PMC12394658, “Discovery of Zharp1-163 as a dual inhibitor of ferroptosis and necroptosis for the treatment of inflammatory disorders and kidney injury” (Cell Death Discovery, 2025)

Legend:
Assay in all cases: biochemical
Set-up in all cases: Kinase selectivity panel of 81 human kinases, ADP-Glo or HTRF, per cent inhibition at 1 uM
ALK4 = molecular target: T1, ALK4 (Homo sapiens, UniProt P36896)
T1 construct: gene ACVR1B
Method: (§1) We next sought to determine the binding affinity of Zharp1-163 for RIPK1 or RIPK3 via a binding assay (Fig. 4A). […] Further, we evaluated the selectivity of Zharp1-163 against a panel of 81 kinases (at 1000 nM). […] To elucidate the binding interactions between Zharp1-163 and RIPK1 kinase, we conducted molecular docking studies using the RIPK1 crystal structure (PDB ID: 4NEU). The predicted binding conformations and interaction patterns between Zharp1-163 and the RIPK1 kinase domain are presented in Fig. 4D, E. Like the cocrystallized ligand in the 4NEU crystal complex, Zharp1-163 was predicted to act as a typical type II kinase inhibitor, interacting with the DLG (Asp156-Leu157-Gly158)-out conformation of RIPK1 (Fig. 4D, E). The 2-aminoimidazo [1,2-a] pyridine moiety of Zharp1-163 formed hydrogen bonds with Met95 in the hinge region. Furthermore, the carboxylate group of Zharp1-163 established hydrogen bonds with Asp156 in the DLG-out region. Additionally, the saturated ring of Zharp1-163 was deeply embedded within the hydrophobic allosteric pocket formed by the residues Met66, Met67, Leu70, Val76, Leu129, and Leu159, which is created by the DLG-out conformation in RIPK1 (Fig. 4D, E).  Fig. 4 Zharp1-163 is a selective inhibitor of RIPK1 kinase activity. A Binding affinity curve of Zharp1-163 with RIPK1 and RIPK3. B In an in vitro kinase activity assay, recombinant RIPK1 was incubated with Zharp1-163, after which RIPK1 kinase activity was determined by measuring ATP levels via a luciferase reporter assay system. […] Kinases are marked with dots, where the color of each kinase indicates the level of inhibition achieved by Zharp1-163. D Predicted binding conformation of Zharp1-163. E Schematic representation of the interaction patterns between Zharp1-163 and the key residues in the binding pocket of the RIPK1 kinase. […] NIH3T3-RIPK3 cells were pretreated with the indicated concentrations of Zharp1-163 for 2 h and then treated with AP20187 (100 nM) for 24 h. Cell viability was determined by measuring ATP levels. […] HeLa-MLKL (1–190) cells were pretreated with the indicated concentrations of Zharp1-163 for 2 h and subsequently treated with AP20187 (100 nM) for 24 h. Cell viability was determined by measuring ATP levels. H Viability of IFNβ-primed MEFs at 18 h after stimulation with poly(I:C) plus z-VAD and treatment with Zharp1-163 (10 μM). I Effects of different concentrations of Zharp1-163 on WT or RIPK1 KO HT-29 cells. Cell viability was determined by measuring ATP levels. The data are presented as the mean ± SD of triplicate samples.

CK1α = molecular target: T2, CK1α (Homo sapiens, UniProt P48729)
T2 construct: gene CSNK1A1
Method: as §1

DCAMKL2 = molecular target: T3, DCAMKL2 (Homo sapiens, UniProt Q8N568)
T3 construct: gene DCLK2
Method: as §1

EPHB4 = EPHB4 (Homo sapiens, UniProt P54760)
Method: as §1

FGFR1 = FGFR1 (Homo sapiens, UniProt P11362)
Method: as §1

HPK1 = molecular target: T4, HPK1 (Homo sapiens, UniProt Q92918)
T4 construct: gene MAP4K1
Method: as §1

IKKα = molecular target: T5, IKKα (Homo sapiens, UniProt O15111)
T5 construct: gene CHUK
Method: as §1

IRAK1 = IRAK1 (Homo sapiens, UniProt P51617)
Method: as §1

JNK1 = molecular target: T6, JNK1 (Homo sapiens, UniProt P45983)
T6 construct: gene MAPK8
Method: as §1

MET = MET (Homo sapiens, UniProt P08581)
Method: as §1

PIM1 = PIM1 (Homo sapiens, UniProt P11309)
Method: as §1

PKCα = molecular target: T7, PKCα (Homo sapiens, UniProt P17252)
T7 construct: gene PRKCA
Method: as §1

TAOK1 = TAOK1 (Homo sapiens, UniProt Q7L7X3)
Method: as §1

p70S6K = molecular target: T8, p70S6K (Homo sapiens, UniProt P23443)
T8 construct: gene RPS6KB1
Method: as §1

T2 sequence (P48729 whole entry): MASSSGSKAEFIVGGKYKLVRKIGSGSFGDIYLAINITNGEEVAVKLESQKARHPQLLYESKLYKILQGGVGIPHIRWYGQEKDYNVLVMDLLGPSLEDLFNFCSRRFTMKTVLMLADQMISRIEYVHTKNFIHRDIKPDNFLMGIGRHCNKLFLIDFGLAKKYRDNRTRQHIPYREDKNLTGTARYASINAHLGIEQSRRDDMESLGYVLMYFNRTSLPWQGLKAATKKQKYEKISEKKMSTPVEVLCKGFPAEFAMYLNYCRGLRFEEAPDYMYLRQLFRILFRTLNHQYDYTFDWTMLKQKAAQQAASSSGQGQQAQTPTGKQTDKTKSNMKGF
PIM1, sequence (P11309 whole entry): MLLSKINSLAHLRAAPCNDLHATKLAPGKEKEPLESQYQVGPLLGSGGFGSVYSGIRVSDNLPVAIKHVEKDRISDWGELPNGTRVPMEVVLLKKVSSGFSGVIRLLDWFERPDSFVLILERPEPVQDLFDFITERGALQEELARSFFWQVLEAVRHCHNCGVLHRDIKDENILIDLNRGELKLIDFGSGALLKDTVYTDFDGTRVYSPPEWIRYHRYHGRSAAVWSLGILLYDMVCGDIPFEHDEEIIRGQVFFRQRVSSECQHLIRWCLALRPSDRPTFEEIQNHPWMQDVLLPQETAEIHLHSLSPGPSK
T8 sequence (P23443 whole entry): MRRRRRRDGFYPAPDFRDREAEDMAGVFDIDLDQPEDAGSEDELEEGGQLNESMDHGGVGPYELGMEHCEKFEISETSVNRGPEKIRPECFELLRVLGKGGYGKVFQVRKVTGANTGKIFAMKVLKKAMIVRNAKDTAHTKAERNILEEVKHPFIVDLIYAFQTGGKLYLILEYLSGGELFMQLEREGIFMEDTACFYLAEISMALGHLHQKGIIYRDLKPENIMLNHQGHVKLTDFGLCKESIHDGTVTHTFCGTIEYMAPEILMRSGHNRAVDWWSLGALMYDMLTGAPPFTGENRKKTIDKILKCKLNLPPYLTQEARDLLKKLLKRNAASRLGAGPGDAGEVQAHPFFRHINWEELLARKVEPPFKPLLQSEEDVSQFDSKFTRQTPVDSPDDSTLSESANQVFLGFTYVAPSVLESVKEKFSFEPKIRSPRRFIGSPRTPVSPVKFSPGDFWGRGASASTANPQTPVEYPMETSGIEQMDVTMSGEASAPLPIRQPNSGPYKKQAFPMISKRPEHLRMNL
TAOK1, sequence (Q7L7X3 whole entry): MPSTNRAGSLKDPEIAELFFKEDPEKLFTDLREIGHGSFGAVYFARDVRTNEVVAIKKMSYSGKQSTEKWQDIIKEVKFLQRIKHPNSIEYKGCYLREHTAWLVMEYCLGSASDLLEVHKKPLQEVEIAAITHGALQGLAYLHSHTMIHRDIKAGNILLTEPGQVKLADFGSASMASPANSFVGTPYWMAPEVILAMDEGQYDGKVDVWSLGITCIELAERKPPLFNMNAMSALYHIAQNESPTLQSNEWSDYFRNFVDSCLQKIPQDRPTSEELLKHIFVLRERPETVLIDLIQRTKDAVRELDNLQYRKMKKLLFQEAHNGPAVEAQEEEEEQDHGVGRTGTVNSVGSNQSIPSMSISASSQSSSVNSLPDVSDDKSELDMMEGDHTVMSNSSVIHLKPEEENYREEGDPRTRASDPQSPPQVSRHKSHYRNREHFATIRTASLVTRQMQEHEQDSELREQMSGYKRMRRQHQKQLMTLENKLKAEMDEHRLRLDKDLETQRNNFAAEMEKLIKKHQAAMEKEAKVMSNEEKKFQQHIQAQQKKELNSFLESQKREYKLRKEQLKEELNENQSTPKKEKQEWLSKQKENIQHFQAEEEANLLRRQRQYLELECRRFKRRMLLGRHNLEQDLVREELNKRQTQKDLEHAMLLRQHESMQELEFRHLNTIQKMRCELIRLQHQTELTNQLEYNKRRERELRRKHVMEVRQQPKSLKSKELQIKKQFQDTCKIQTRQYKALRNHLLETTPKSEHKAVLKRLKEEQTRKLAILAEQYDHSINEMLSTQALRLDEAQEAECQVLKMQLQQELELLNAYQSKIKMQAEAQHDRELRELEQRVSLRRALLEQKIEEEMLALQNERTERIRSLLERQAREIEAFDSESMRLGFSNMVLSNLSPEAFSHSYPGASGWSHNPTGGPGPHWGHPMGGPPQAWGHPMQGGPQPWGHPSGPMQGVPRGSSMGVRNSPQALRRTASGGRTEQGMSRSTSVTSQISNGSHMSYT
T5 sequence (O15111 whole entry): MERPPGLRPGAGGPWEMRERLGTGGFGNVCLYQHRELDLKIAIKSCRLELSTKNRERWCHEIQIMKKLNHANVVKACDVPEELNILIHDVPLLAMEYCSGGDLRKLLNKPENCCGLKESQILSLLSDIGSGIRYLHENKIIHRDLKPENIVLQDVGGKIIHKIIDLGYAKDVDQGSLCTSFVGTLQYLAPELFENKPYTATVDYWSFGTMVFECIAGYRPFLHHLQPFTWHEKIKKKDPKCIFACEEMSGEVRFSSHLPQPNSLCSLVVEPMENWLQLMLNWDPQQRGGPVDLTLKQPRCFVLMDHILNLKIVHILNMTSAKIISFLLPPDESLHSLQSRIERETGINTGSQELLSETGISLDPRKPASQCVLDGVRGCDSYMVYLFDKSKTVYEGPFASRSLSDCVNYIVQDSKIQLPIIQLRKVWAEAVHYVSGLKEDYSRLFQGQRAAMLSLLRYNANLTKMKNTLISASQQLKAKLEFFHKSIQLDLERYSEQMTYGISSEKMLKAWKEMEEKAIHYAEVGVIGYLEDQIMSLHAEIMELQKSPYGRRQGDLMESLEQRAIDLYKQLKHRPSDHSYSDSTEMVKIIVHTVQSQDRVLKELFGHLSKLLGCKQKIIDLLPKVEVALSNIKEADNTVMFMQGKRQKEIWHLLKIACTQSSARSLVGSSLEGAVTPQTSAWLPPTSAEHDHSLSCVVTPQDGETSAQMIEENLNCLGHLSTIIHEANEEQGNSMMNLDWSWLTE
T3 sequence (Q8N568 whole entry): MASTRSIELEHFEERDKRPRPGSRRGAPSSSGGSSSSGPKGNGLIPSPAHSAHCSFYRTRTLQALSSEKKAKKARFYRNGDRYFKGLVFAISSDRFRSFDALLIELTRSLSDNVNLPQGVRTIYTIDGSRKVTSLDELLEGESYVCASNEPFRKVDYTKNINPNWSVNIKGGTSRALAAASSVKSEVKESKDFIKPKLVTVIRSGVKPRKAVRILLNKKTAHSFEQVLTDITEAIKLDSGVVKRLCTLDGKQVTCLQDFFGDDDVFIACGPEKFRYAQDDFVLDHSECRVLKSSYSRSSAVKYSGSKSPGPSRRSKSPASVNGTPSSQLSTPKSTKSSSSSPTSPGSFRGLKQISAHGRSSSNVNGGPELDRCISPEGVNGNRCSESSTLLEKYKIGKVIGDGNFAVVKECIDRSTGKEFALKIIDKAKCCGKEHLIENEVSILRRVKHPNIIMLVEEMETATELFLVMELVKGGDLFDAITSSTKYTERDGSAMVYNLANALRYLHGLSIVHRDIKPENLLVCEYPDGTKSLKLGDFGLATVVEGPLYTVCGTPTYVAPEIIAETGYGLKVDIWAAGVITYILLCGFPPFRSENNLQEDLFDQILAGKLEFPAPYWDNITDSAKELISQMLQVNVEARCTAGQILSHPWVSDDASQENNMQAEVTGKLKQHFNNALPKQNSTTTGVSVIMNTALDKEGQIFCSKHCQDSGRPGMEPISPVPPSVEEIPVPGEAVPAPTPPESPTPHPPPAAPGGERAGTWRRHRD
FGFR1, sequence (P11362 whole entry): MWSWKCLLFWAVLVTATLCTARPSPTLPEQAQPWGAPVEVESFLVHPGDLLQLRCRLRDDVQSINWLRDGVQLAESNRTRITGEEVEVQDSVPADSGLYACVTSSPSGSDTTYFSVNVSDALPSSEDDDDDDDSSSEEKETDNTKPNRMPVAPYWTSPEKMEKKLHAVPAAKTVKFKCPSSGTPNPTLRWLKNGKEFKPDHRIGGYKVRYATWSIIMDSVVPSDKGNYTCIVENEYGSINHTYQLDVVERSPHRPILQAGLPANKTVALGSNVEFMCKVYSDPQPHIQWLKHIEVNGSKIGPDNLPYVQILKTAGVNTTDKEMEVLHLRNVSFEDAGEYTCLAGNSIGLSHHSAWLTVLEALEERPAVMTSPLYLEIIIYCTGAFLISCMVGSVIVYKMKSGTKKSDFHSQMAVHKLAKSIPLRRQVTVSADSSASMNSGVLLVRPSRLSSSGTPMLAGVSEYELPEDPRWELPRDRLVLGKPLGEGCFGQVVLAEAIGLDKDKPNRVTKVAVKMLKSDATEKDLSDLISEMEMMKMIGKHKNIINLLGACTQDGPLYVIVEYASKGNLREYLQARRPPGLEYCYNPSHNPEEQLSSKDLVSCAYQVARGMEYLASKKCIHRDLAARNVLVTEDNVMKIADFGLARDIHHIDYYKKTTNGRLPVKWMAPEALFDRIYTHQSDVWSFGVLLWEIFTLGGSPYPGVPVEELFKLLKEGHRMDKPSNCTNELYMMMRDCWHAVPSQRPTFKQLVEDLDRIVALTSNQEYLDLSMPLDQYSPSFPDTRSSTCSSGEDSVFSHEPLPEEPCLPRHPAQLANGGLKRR
T6 sequence (P45983 whole entry): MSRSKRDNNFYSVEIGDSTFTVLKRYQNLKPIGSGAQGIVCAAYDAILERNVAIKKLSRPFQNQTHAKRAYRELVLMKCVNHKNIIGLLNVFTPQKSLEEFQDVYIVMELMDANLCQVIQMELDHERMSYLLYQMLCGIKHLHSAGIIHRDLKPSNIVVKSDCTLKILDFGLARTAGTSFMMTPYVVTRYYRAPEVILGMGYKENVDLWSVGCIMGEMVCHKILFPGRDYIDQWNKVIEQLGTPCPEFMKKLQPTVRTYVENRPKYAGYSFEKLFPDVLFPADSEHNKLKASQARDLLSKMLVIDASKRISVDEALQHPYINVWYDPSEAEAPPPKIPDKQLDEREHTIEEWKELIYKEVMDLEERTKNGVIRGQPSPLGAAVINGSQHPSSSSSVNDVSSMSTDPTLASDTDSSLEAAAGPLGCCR

inhibition at 1 µM (ALK4; replicate Data1): -1.47%
inhibition at 1 µM (ALK4; replicate Data2): -2.74%
inhibition at 1 µM (CK1α; replicate Data1): -4.65%
inhibition at 1 µM (CK1α; replicate Data2): -16.6%
inhibition at 1 µM (DCAMKL2; replicate Data1): 5.19%
inhibition at 1 µM (DCAMKL2; replicate Data2): 1.92%
inhibition at 1 µM (EPHB4; replicate Data1): 1.63%
inhibition at 1 µM (EPHB4; replicate Data2): -4.43%
inhibition at 1 µM (FGFR1; replicate Data1): 2.7%
inhibition at 1 µM (FGFR1; replicate Data2): -0.57%
inhibition at 1 µM (HPK1; replicate Data1): 17%
inhibition at 1 µM (HPK1; replicate Data2): 2.46%
inhibition at 1 µM (IKKα; replicate Data1): 0.19%
inhibition at 1 µM (IKKα; replicate Data2): 7.24%
inhibition at 1 µM (IRAK1; replicate Data1): 1.3%
inhibition at 1 µM (IRAK1; replicate Data2): -3.6%
inhibition at 1 µM (JNK1; replicate Data1): 6.2%
inhibition at 1 µM (JNK1; replicate Data2): 5.09%
inhibition at 1 µM (MET; replicate Data1): 18.3%
inhibition at 1 µM (MET; replicate Data2): 3.81%
inhibition at 1 µM (PIM1; replicate Data1): 3.88%
inhibition at 1 µM (PIM1; replicate Data2): 7.34%
inhibition at 1 µM (PKCα; replicate Data1): -5.43%
inhibition at 1 µM (PKCα; replicate Data2): -7.15%
inhibition at 1 µM (TAOK1; replicate Data1): 2.07%
inhibition at 1 µM (TAOK1; replicate Data2): -4.35%
inhibition at 1 µM (p70S6K; replicate Data1): -3.27%
inhibition at 1 µM (p70S6K; replicate Data2): -3.18%
Structure (SMILES): Nc1cn2cc(-c3cnc4c(c3)N(C(=O)OC3CCCCC3)CCO4)ccc2n1 [Zharp1-163]
